Assay: Plasma pharmacokinetics of BI 187004 after single oral doses (LC–MS/MS)
Details: male, human, plasma, po
[1] = 10 mg, Plasma concentration Mean, 10 mg single oral
[2] = 10 mg, Plasma concentration Median, 10 mg single oral
[3] = 10 mg, Plasma concentration gMean, 10 mg single oral

Procedure: This was a randomized, double-blind, placebo-controlled, single rising dose study conducted at a single center in Germany. […] Follow-up on an ambulatory basis was performed between 11 and 15 days after study drug administration. […] At the time of use the oral solution for dosing was prepared using the PFOS and a co-supplied aqueous solvent containing HP-beta-cyclodextrin 100 mg/mL. The lowest dose level solutions were prepared by further dilution of the lower concentration solution with additional solvent.
For each accepted run, the acceptance criteria for the calibration standards and quality controls were met.

N#Cc1ccc2c(c1)[C@H]1CCCN(C(=O)c3ccc4[nH]cnc4c3)[C@H]1C2 [BI 187004]
concentration at 24 h [1]: 76.9 nM
concentration at 36 h [1]: 30.2 nM
concentration at 48 h [1]: 22.8 nM
concentration at 72 h [1]: 10.7 nM
concentration at 96 h [1]: 5.72 nM
concentration at 0.5 h (10 mg, Plasma concentration Median, 10 mg single oral, 0.5 h): 363 nM
concentration at 1 h (10 mg, Plasma concentration Median, 10 mg single oral, 1 h): 413 nM
concentration at 1.5 h (10 mg, Plasma concentration Median, 10 mg single oral, 1.5 h): 435 nM
concentration at 2 h (10 mg, Plasma concentration Median, 10 mg single oral, 2 h): 396 nM
concentration at 2.5 h (10 mg, Plasma concentration Median, 10 mg single oral, 2.5 h): 381 nM
concentration at 3 h (10 mg, Plasma concentration Median, 10 mg single oral, 3 h): 334 nM
concentration at 4 h (10 mg, Plasma concentration Median, 10 mg single oral, 4 h): 368 nM
concentration at 5 h (10 mg, Plasma concentration Median, 10 mg single oral, 5 h): 272 nM
concentration at 6 h (10 mg, Plasma concentration Median, 10 mg single oral, 6 h): 243 nM
concentration at 8 h (10 mg, Plasma concentration Median, 10 mg single oral, 8 h): 217 nM
concentration at 10 h [2]: 179 nM
concentration at 12 h [2]: 147 nM
concentration at 24 h [2]: 80 nM
concentration at 36 h [2]: 29.6 nM
concentration at 48 h [2]: 22.4 nM
concentration at 72 h [2]: 9.36 nM
concentration at 96 h [2]: 5.09 nM
concentration at 0.5 h (10 mg, Plasma concentration gMean, 10 mg single oral, 0.5 h): 279 nM
concentration at 1 h (10 mg, Plasma concentration gMean, 10 mg single oral, 1 h): 426 nM
concentration at 1.5 h (10 mg, Plasma concentration gMean, 10 mg single oral, 1.5 h): 435 nM
concentration at 2 h (10 mg, Plasma concentration gMean, 10 mg single oral, 2 h): 380 nM
concentration at 2.5 h (10 mg, Plasma concentration gMean, 10 mg single oral, 2.5 h): 372 nM
concentration at 3 h (10 mg, Plasma concentration gMean, 10 mg single oral, 3 h): 336 nM
concentration at 4 h (10 mg, Plasma concentration gMean, 10 mg single oral, 4 h): 340 nM
concentration at 5 h (10 mg, Plasma concentration gMean, 10 mg single oral, 5 h): 270 nM
concentration at 6 h (10 mg, Plasma concentration gMean, 10 mg single oral, 6 h): 254 nM
concentration at 8 h (10 mg, Plasma concentration gMean, 10 mg single oral, 8 h): 208 nM
concentration at 10 h [3]: 174 nM
concentration at 12 h [3]: 140 nM
concentration at 24 h [3]: 71.3 nM
concentration at 36 h [3]: 26.3 nM
concentration at 48 h [3]: 20.5 nM
concentration at 72 h [3]: 10.2 nM
concentration at 96 h [3]: 5.48 nM
concentration at 1 h (10 mg, Plasma concentration, individual subjects, 10 mg single oral, planned time 1 h): 519 nM
concentration at 1.5 h (10 mg, Plasma concentration, individual subjects, 10 mg single oral, planned time 1.5 h): 537 nM
concentration at 2 h (10 mg, Plasma concentration, individual subjects, 10 mg single oral, planned time 2 h): 437 nM
concentration at 2.5 h (10 mg, Plasma concentration, individual subjects, 10 mg single oral, planned time 2.5 h): 442 nM
concentration at 3 h (10 mg, Plasma concentration, individual subjects, 10 mg single oral, planned time 3 h): 405 nM
concentration at 4 h (10 mg, Plasma concentration, individual subjects, 10 mg single oral, planned time 4 h): 412 nM
concentration at 5 h (10 mg, Plasma concentration, individual subjects, 10 mg single oral, planned time 5 h): 352 nM
concentration at 6 h (10 mg, Plasma concentration, individual subjects, 10 mg single oral, planned time 6 h): 353 nM
concentration at 8 h (10 mg, Plasma concentration, individual subjects, 10 mg single oral, planned time 8 h): 241 nM
AUC(0-inf) (20 mg): 12.4 µM·h
AUC(0-t) (20 mg): 9.45 µM·h
Cmax (20 mg): 1030 nM
Tmax (20 mg): 1.38 h
Vd/F (20 mg): 144 L
half-life (20 mg): 21.2 h
concentration at 0.5 h (20 mg, BI 187004 plasma concentrations, 20 mg single oral, planned time 0.5 h, Max): 1050 nM
concentration at 0.5 h (20 mg, BI 187004 plasma concentrations, 20 mg single oral, planned time 0.5 h, Mean): 431 nM
concentration at 0.5 h (20 mg, BI 187004 plasma concentrations, 20 mg single oral, planned time 0.5 h, Median): 215 nM
concentration at 0.5 h (20 mg, BI 187004 plasma concentrations, 20 mg single oral, planned time 0.5 h, Min): 34.3 nM
concentration at 0.5 h (20 mg, BI 187004 plasma concentrations, 20 mg single oral, planned time 0.5 h, gMean): 211 nM
concentration at 1 h (20 mg, BI 187004 plasma concentrations, 20 mg single oral, planned time 1 h, Max): 1130 nM
concentration at 1 h (20 mg, BI 187004 plasma concentrations, 20 mg single oral, planned time 1 h, Mean): 885 nM
concentration at 1 h (20 mg, BI 187004 plasma concentrations, 20 mg single oral, planned time 1 h, Median): 1030 nM
concentration at 1 h (20 mg, BI 187004 plasma concentrations, 20 mg single oral, planned time 1 h, Min): 236 nM
concentration at 1 h (20 mg, BI 187004 plasma concentrations, 20 mg single oral, planned time 1 h, gMean): 788 nM
concentration at 1.5 h (20 mg, BI 187004 plasma concentrations, 20 mg single oral, planned time 1.5 h, Max): 1210 nM
concentration at 1.5 h (20 mg, BI 187004 plasma concentrations, 20 mg single oral, planned time 1.5 h, Mean): 969 nM
concentration at 1.5 h (20 mg, BI 187004 plasma concentrations, 20 mg single oral, planned time 1.5 h, Median): 944 nM
concentration at 1.5 h (20 mg, BI 187004 plasma concentrations, 20 mg single oral, planned time 1.5 h, Min): 824 nM
concentration at 1.5 h (20 mg, BI 187004 plasma concentrations, 20 mg single oral, planned time 1.5 h, gMean): 960 nM
concentration at 1.5 h (20 mg, BI 187004 plasma concentrations, 20 mg single oral, planned time 1.5 h, individual subjects): 1210 nM
concentration at 2 h (20 mg, BI 187004 plasma concentrations, 20 mg single oral, planned time 2 h, Max): 1100 nM
concentration at 2 h (20 mg, BI 187004 plasma concentrations, 20 mg single oral, planned time 2 h, Mean): 877 nM
concentration at 2 h (20 mg, BI 187004 plasma concentrations, 20 mg single oral, planned time 2 h, Median): 890 nM
concentration at 2 h (20 mg, BI 187004 plasma concentrations, 20 mg single oral, planned time 2 h, Min): 630 nM
concentration at 2 h (20 mg, BI 187004 plasma concentrations, 20 mg single oral, planned time 2 h, gMean): 863 nM
concentration at 2 h (20 mg, BI 187004 plasma concentrations, 20 mg single oral, planned time 2 h, individual subjects): 1100 nM
concentration at 2.5 h (20 mg, BI 187004 plasma concentrations, 20 mg single oral, planned time 2.5 h, Max): 1060 nM
concentration at 2.5 h (20 mg, BI 187004 plasma concentrations, 20 mg single oral, planned time 2.5 h, Mean): 860 nM
concentration at 2.5 h (20 mg, BI 187004 plasma concentrations, 20 mg single oral, planned time 2.5 h, Median): 866 nM
concentration at 2.5 h (20 mg, BI 187004 plasma concentrations, 20 mg single oral, planned time 2.5 h, Min): 619 nM
concentration at 2.5 h (20 mg, BI 187004 plasma concentrations, 20 mg single oral, planned time 2.5 h, gMean): 843 nM
concentration at 2.5 h (20 mg, BI 187004 plasma concentrations, 20 mg single oral, planned time 2.5 h, individual subjects): 1060 nM
concentration at 3 h (20 mg, BI 187004 plasma concentrations, 20 mg single oral, planned time 3 h, Max): 945 nM
concentration at 3 h (20 mg, BI 187004 plasma concentrations, 20 mg single oral, planned time 3 h, Mean): 760 nM
concentration at 3 h (20 mg, BI 187004 plasma concentrations, 20 mg single oral, planned time 3 h, Median): 770 nM
concentration at 3 h (20 mg, BI 187004 plasma concentrations, 20 mg single oral, planned time 3 h, Min): 586 nM
concentration at 3 h (20 mg, BI 187004 plasma concentrations, 20 mg single oral, planned time 3 h, gMean): 746 nM
concentration at 3 h (20 mg, BI 187004 plasma concentrations, 20 mg single oral, planned time 3 h, individual subjects): 945 nM
concentration at 4 h (20 mg, BI 187004 plasma concentrations, 20 mg single oral, planned time 4 h, Max): 896 nM
concentration at 4 h (20 mg, BI 187004 plasma concentrations, 20 mg single oral, planned time 4 h, Mean): 724 nM
concentration at 4 h (20 mg, BI 187004 plasma concentrations, 20 mg single oral, planned time 4 h, Median): 748 nM
concentration at 4 h (20 mg, BI 187004 plasma concentrations, 20 mg single oral, planned time 4 h, Min): 531 nM
concentration at 4 h (20 mg, BI 187004 plasma concentrations, 20 mg single oral, planned time 4 h, gMean): 707 nM
concentration at 4 h (20 mg, BI 187004 plasma concentrations, 20 mg single oral, planned time 4 h, individual subjects): 896 nM
concentration at 5 h (20 mg, BI 187004 plasma concentrations, 20 mg single oral, planned time 5 h, Max): 883 nM
concentration at 5 h (20 mg, BI 187004 plasma concentrations, 20 mg single oral, planned time 5 h, Mean): 653 nM
concentration at 5 h (20 mg, BI 187004 plasma concentrations, 20 mg single oral, planned time 5 h, Median): 644 nM
concentration at 5 h (20 mg, BI 187004 plasma concentrations, 20 mg single oral, planned time 5 h, Min): 463 nM
concentration at 5 h (20 mg, BI 187004 plasma concentrations, 20 mg single oral, planned time 5 h, gMean): 634 nM
concentration at 5 h (20 mg, BI 187004 plasma concentrations, 20 mg single oral, planned time 5 h, individual subjects): 773 nM
concentration at 6 h (20 mg, BI 187004 plasma concentrations, 20 mg single oral, planned time 6 h, Max): 847 nM
concentration at 6 h (20 mg, BI 187004 plasma concentrations, 20 mg single oral, planned time 6 h, Mean): 566 nM
concentration at 6 h (20 mg, BI 187004 plasma concentrations, 20 mg single oral, planned time 6 h, Median): 529 nM
concentration at 6 h (20 mg, BI 187004 plasma concentrations, 20 mg single oral, planned time 6 h, Min): 420 nM
